Source: ChEMBL document CHEMBL5120767, “Phlegmacaritones A and B, a Pair of Serratane-Related Triterpenoid Epimers with an Unprecedented Carbon Skeleton from Phlegmariurus carinatus” (J Nat Prod, 2022)
The source made the active and inactive calls. The calls are words filed in the database; no cut-off is given here.

How the values were obtained:
Format in all cases: functional, cell-based
ONS [1] = test: Effect on human ONS cells assessed as increase in LC3b intensity at 5 uM after 24 hrs by fluorescence microscopic analysis
ONS [2] = test: Effect on human ONS cells assessed as decrease in EEA1-marked early endosomes at 5 uM after 24 hrs by fluorescence microscopic analysis
ONS [3] = test: Induction of phenotypical changes in human ONS cells at 5 uM after 24 hrs
ONS [4] = test: Effect on human ONS cells assessed as increase in mitochondrial intensity at 5 uM after 24 hrs by fluorescence microscopic analysis
ONS [5] = test: Effect on human ONS cells assessed as increase in alpha-tubulin intensity at 5 uM after 24 hrs by fluorescence microscopic analysis
ONS [6] = test: Effect on human ONS cells assessed as increase in EEA1-marked early endosomes at 5 uM after 24 hrs by fluorescence microscopic analysis
ONS [7] = test: Effect on human ONS cells assessed as decrease in alpha-tubulin intensity at 5 uM after 24 hrs by fluorescence microscopic analysis

Row | Structure (SMILES) | Activity (ONS [1]) | Activity (ONS [2]) | Activity (ONS [3]) | Activity (ONS [4]) | Activity (ONS [5]) | Activity (ONS [6]) | Activity (ONS [7])
1 | C=C1C=C2C[C@]3(C)CC[C@H]4C(C)(C)[C@@H](O)CC[C@]4(C)[C@H]3CC[C@@H]2[C@@]2(C)CC[C@@H](O)[C@](C)(CO)[C@H]12 | Active | Active | Active | Active | Active | – | –
2 | C[C@@]12CC[C@@H]3[C@](C)(CC[C@@H](O)[C@]3(C)C(=O)O)[C@H]1CC[C@H]([C@@]1(C)CC[C@@H](O)[C@@]3(C)COC(=O)C[C@@H]31)C(=O)C2 | – | – | – | – | – | Active | –
3 | C[C@@]12CC[C@@H]3[C@](C)(CC[C@@H](O)[C@]3(C)C(=O)O)[C@H]1CC[C@H]1[C@H](C2)C(=O)C[C@H]2[C@](C)(CO)[C@@H](O)CC[C@@]21C | – | – | – | – | – | Active | –
4 | CC1(C)[C@@H](O)CC[C@]2(C)[C@H]3CC[C@H]4[C@@](C)(CC[C@@H]5[C@]4(C)CC[C@H](O)[C@]5(C)COC(=O)CCc4ccc(O)c(O)c4)CC3=CC[C@@H]12 | Active | Active | – | Active | Active | – | –
5 | CC1(C)[C@@H](OC(=O)CCc2ccc(O)c(O)c2)CC[C@@]2(C)[C@H]1CC[C@@]1(C)CC3CC[C@@H]4[C@](C)(CC[C@@H](O)[C@]4(C)CO)[C@H]3CC[C@@H]12 (stereo not given in full) | Active | Active | – | Active | Active | – | –
6 | C=C1C=C2C[C@]3(C)CC[C@@H]4[C@](C)(CC[C@@H](O)[C@]4(C)CO)[C@H]3CC[C@@H]2[C@@]2(C)CC[C@@H](O)[C@@](C)(CO)[C@]12C | – | – | – | – | – | Active | –
7 | C=C1C=C2C[C@]3(C)CC[C@@H]4[C@](C)(CC[C@@H](O)[C@]4(C)CO)[C@H]3CC[C@@H]2[C@@]2(C)CC[C@@H](O)[C@](C)(CO)[C@H]12 | – | – | – | – | – | Active | –
8 | C[C@H]1CC(=O)[C@]23CCCN4CCC[C@]2(C4)C(=O)C[C@@H]3[C@H]1O | – | – | Active | – | – | – | –
9 | C=C1C=C2C[C@]3(C)CC[C@@H]4[C@](C)(CC[C@@H](O)[C@]4(C)C(=O)O)[C@H]3CC[C@@H]2[C@@]2(C)CC[C@@H](O)C(C)(C)[C@H]12 | Active | Active | – | Active | Active | – | –
10 | CC1(C)[C@H](O)CC[C@]2(C)[C@H]3CC[C@H]4[C@@](C)(CC[C@@H]5[C@]4(C)CC[C@@H](O)[C@]5(C)CO)CC3=CC(=O)[C@@]12C | – | – | – | – | – | Active | –
11 | C=C1C=C2C[C@]3(C)CC[C@@H]4[C@](C)(CC[C@@H](O)[C@]4(C)CO)[C@H]3CC[C@@H]2[C@@]2(C)CC[C@@H](O)C(C)(C)[C@H]12 | Active | Active | – | Active | Active | – | –
12 | CC1(C)[C@@H](OC(=O)CCc2ccc(O)c(O)c2)CC[C@@]2(C)[C@H]1CC[C@@]1(C)CC3CC[C@H]4C(C)(C)[C@@H](O)CC[C@]4(C)[C@H]3CC[C@@H]12 (stereo not given in full) | Active | Active | – | Active | Active | – | –
13 | CC1(C)[C@H](O)CC[C@]2(C)[C@H]3CC[C@H]4[C@@](C)(CC[C@@H]5[C@]4(C)CC[C@@H](O)[C@]5(C)C(=O)O)C[C@H]3C(=O)C[C@@H]12 | Active | Active | – | Active | Active | – | –
14 | CC1(C)[C@H](O)CC[C@]2(C)[C@H]3CC[C@H]4[C@@](C)(CC[C@@H]5[C@]4(C)CC[C@@H](O)[C@]5(C)C(=O)O)C[C@@H]3C(=O)C[C@@H]12 | Active | Active | Active | Active | – | – | Active
15 | C=C1C=C2C[C@]3(C)CC[C@H]4C(C)(C)[C@H](O)CC[C@]4(C)[C@H]3CC[C@@H]2[C@@]2(C)CC[C@@H](O)C(C)(C)[C@H]12 | Active | Active | – | Active | Active | – | –
16 | CC1(C)[C@@H](O)CC[C@]2(C)[C@H]3CC[C@H]4[C@@](C)(CC[C@@H]5[C@]4(C)CC[C@H](OC(=O)CCc4ccc(O)c(O)c4)[C@]5(C)CO)CC3CC[C@@H]12 (stereo not given in full) | – | – | – | – | – | Active | –
